From patent publication US20030053952A1, “Therapeutic tool for vascular diseases” (Yasumi UCHIDA, priority 2001, published 2003)
“Also recorded” adds a separate entry of the source.

Legend:
[1] = tested on: vascular progenitor cells; assay: Grafting of dye-eluting artificial grafts to canine common carotid artery (percentage stenosis, progenitor cell count); assay type: in vivo, beagle dogs; details: dye-eluting artificial graft, 3 months after grafting
Excerpt: In anesthetized beagle dogs, the bilateral sides of the neck were incised to expose both right and left common carotid arteries. An 8 F sheath was introduced into the right femoral artery through which a 8 F catheter was introduced into the aortic arch for angiography of the carotid arteries. A dye-eluting artificial graft was sutured to the common carotid arteries in side to end fashion to make a shunt between the right and left common carotid arteries. Then, a segment of right carotid artery proximal to and that of left distal to anastomoses were ligatured. Thus, the blood drained from the left to the right common carotid artery. Similarly in other group, grafts coated with bionate or Sanpren without dye were sutured to the arteries as control group. The dogs were cared for 3 months according to the guideline and angiography was repeated. Percentage stenosis of the sutured portion was compared between the dye and control groups. After cardiac arrest as mentioned above, the grafts and arteries were removed and were used for microscopic examinations.

[2] = tested on: vascular progenitor cells; assay: Implantation of dye-eluting stents into canine coronary artery (percentage stenosis, angioscopy, progenitor cell count); assay type: in vivo, beagle dogs; details: for Number of cells (250 × 250 μm^2), Adventitia / Number of cells (250 × 250 μm^2), Intima / Number of cells (250 × 250 μm^2), Media: dye-eluting stent, stented coronary segment, one month after implantation
Method: Beagle dogs of either sex was anesthetized with pentobarbital sodium (25 mg/kg, i.v.) and trachea was intubated for artificial respiration with air. The right side of the neck was incised longitudinally to expose right common carotid artery. An 8F sheath was introduced into the artery through which an 8F guiding catheter was introduced into the left coronary artery. After coronary angiography, a balloon catheter clinically used for PTCA was introduced to dilate anterior descending artery. Then, a balloon catheter with a dye-eluting stent on it was introduced into the dilated segment of left anterior descending artery and it was inflated at 9 atms to implant the stent. After recovery from anesthesia, the dogs were cared according the guideline of Jikei University School of Medicine. One month later, the dogs were anesthetized again and coronary angiography and angioscopy (Uchida Y: Coronary Angioscopy, Futura Publishing Co, NY, 2000) were performed to examine the changes in the stented coronary segment. […] Thereafter, the dogs were sacrificed with intracoronary pentobarbital and the heart was removed. The heart was fixed with 10% hormaldehyde solution for microscopic examination.
The coronary angiograms were used for calibration of the percentage stenosis, namely (diameter before stent implantation-minimum luminal diameter/diameter before stent implantation)×100 of the narrowest portion (minimum luminal diameter) in the stent and was compared. Student's t test was used for statistical analysis and when P<0.05, the value was considered significant.
The stented coronary segment was removed and cut into slice in 5 μm in thickness. The slices were stained with beta-actin antibody and the number of vascular progenitor cells per unit area was counted and was compared between the dye and control groups.

[3] = Preliminary in vitro elution of dye from double-layer coated stent immersed in water; assay type: physicochemical
Method: a) A soft polycarbonate urethane with risin bionate (Bionate 80A, Polimertech, USA) was used. Evans blue powder was dissolved in the bionate to make 20% Evans blue solution. A commercially available coronary stent (NIR stent, 3 mm×12 mm or Palmatz-Schatz stent, 3 mm×12 mm) was immersed into the solution for 10 min to form slowly eluting inner layer. Then, the stent was dried at room temperature. Evans blue powder was dissolved in distilled water to make 20% solution. The same stent was immersed into the solution for 10 min to make rapidly eluting outer layer. The stent was dried at room temperature. Then, the stent was sterilized with ethylene oxide gas. In the preliminary experiment in vitro, Evans blue began to elute from the outer layer immediately after and ceased to elute within 60 min after immersion into water.

[4] = tested on: vascular progenitor cells; assay: Local delivery of dyes by porous balloon into balloon-injured coronary artery; count of migrated vascular progenitor cells; assay type: in vivo, beagle dogs; details: dogs
Method: Adult beagle dogs of either sexes weighing from 7 to 12 kg were anesthetized with pentobarbital sodium (25-30 mg/kg, i.v.) and the trachea was intubated for artificial respiration with air. The right side of the neck was longitudinally incised to expose the right common carotid artery and an 8 F sheath was introduced, through which an 8F guiding catheter was introduced into the left coronary ostium for angiography. After angiography, a balloon catheter (2.5 mm×20 mm) was introduced through the guiding catheter into the middle to distal segment of either the anterior descending or circumflex artery. Then, the balloon was inflated at 9 atms to
dilate the segment to induced disruption of the endothelium and internal elastic lamina. The balloon catheter was replaced by a porous balloon catheter (3 mm×20 mm) with multiple pores in the balloon (Clinical Supply Co, Gifu, Japan) for local delivery of dyes. Thereafter, 0.2 ml of 5% Evans blue saline solution was injected through the porous balloon into the dilated segment at 3 atms in 6 dogs and 0.5 ml of 5% Ethidium bromide saline solution
was injected similarly in 5 dogs. […] The dilated coronary segment and its surrounding tissues were removed and sliced, vascular progenitor cells were stained with beta-smooth muscle actin antibody (DAKO EPOS, Glostrup, Denmark) and the number of vascular progenitor cells/250×250 μm^2 was counted.

Time at which elution from the outer (rapidly eluting) layer ceased ([3]; stent coated from 20% aqueous dye solution, after immersion into water) [min]	Time at which elution from the inner (slowly eluting) layer began ([3]; stent coated from 20% dye in Bionate 80A, after immersion into water) [min]	Duration of elution from the inner (slowly eluting) layer ([3]; stent coated from 20% dye in Bionate 80A, immersion into water)	SMILES	Number of cells (250 × 250 μm^2), vascular progenitor cells at the anastomosed portion of the common carotid artery [1]	Number of cells (250 × 250 μm^2), Adventitia [2]	Number of cells (250 × 250 μm^2), Intima [2]	Number of cells (250 × 250 μm^2), Media [2]	Migration of circulating vascular progenitor cells into the injured coronary wall [4]	Percentage stenosis of the stented coronary segments ([2]; angiography, 4 weeks after implantation of dye-coated stents, vs stents without dye)	Angioscopic appearance of stenosis of the stented coronary segment ([2]; angioscopy, 4 weeks after stent implantation)
			CC[n+]1c(-c2ccccc2)c2cc(N)ccc2c2ccc(N)cc21 [Ethidium bromide]	11.1 ± 3.1 /250 × 250 μm^2	21.3 ± 9.9 /250 × 250 μm^2	8.3 ± 3.7 /250 × 250 μm^2	9.6 ± 5.0 /250 × 250 μm^2			
≤ 60	60	up to one month	Cc1cc(-c2ccc(/N=N/c3ccc4c(S(=O)(=O)O)cc(S(=O)(=O)O)c(N)c4c3O)c(C)c2)ccc1/N=N/c1ccc2c(S(=O)(=O)O)cc(S(=O)(=O)O)c(N)c2c1O [Evans blue]	13.4 ± 4.0 /250 × 250 μm^2	17.0 ± 7.1 /250 × 250 μm^2	7.1 ± 3.2 /250 × 250 μm^2	8.0 ± 4.0 /250 × 250 μm^2	no migration of the cells was observed; also recorded: inhibit migration	significantly smaller	stenosis was mild
